Assays:
Format in all cases: functional
[1] = molecular target: T1, Cdk-related protein kinase 6 (Plasmodium falciparum, UniProt O77239); experiment: Final concentrations were 1.5 uM ATP, 5 mM MnCl2, and 15 ug/ml PK6 in a buffer of 100 mM Tris-HCl (pH 7.5). 50 ug/mL MBP was provided as the substrate; 10 uM staurosporine was used as a control inhibitor. Incubation time was 3 hours and 40 minutes.The catalytic activity of each kinase was considered proportional to ATP consumed, as determined from measurements of residual [ATP] with the luciferase-based reagent Kinase-Glo (Promega) following incubation. Luminescence (proportional to residual [ATP]) was measured on the plate readers FLx800 (BioTek Instruments, Winooski, VT, USA) and MicroBeta2.
T1 sequence (O77239 whole entry): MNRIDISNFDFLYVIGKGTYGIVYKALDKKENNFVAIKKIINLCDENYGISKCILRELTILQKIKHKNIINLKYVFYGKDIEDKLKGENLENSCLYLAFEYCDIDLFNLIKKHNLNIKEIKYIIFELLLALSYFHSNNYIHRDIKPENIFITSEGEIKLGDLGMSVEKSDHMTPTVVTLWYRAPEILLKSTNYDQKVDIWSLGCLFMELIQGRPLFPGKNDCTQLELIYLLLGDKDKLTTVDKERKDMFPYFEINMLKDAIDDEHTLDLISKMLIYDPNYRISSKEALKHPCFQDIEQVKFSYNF

[2] = molecular target: T2, Mitogen-activated protein kinase (Plasmodium falciparum, UniProt Q25917); experiment: Final concentrations were 1 uM ATP, 0.5 mM DTT, 1 mM MgCl2, 0.5 mg/mL BSA, and 10 ug/ml MAP2 in a buffer of 50 mM HEPES (pH 7.0). 0.5 mg/mL histone III-S served as the substrate (13); 100 uM AMP-PNP, an ATP analog, was used as a control inhibitor. Incubation time was 4 hours.
T2 sequence (Q25917 whole entry): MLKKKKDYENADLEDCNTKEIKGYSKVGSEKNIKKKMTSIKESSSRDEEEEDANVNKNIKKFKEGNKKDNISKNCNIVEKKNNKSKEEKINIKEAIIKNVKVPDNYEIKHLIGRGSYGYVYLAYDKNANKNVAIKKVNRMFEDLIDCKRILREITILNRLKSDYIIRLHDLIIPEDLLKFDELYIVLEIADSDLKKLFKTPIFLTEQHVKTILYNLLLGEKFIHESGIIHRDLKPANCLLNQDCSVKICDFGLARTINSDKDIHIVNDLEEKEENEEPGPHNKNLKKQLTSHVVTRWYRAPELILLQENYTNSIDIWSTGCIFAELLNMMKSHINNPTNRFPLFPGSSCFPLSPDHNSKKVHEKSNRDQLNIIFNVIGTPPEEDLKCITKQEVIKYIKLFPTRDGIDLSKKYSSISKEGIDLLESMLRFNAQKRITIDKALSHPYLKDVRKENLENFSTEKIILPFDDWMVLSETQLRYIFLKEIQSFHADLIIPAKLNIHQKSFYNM

[3] = molecular target: T3, Putative uncharacterized protein pk7 (Plasmodium falciparum, UniProt O96214); experiment: Final concentrations were 1 uM ATP, 2 mM DTT, 20 mM MgCl2, 2 mM MnCl2, 0.01% BSA, and 6 ug/ml PK7, in a buffer of 20 mM Tris-HCl (pH 7.5). The enzyme itself was the only substrate present (since autophosphorylation occurs); 100 uM 1NA-PP1 was used as a control inhibitor. Incubation time was 3 hours.
T3 sequence (O96214 whole entry): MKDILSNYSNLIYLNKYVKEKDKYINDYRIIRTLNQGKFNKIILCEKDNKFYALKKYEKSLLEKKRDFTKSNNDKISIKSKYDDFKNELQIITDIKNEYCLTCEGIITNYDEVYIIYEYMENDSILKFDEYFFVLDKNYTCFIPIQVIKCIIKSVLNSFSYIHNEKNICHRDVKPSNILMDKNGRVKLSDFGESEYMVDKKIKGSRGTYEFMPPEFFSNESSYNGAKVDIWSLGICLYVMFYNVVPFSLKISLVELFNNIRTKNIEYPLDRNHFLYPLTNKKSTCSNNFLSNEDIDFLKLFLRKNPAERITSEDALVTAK

[4] = molecular target: T4, Proline--tRNA ligase (Plasmodium falciparum (isolate 3D7), UniProt Q8I5R7); experiment: MMV: ProRS recombinant Plasmodium falciparum Prolyl-tRNA-synthetase, assay with yeast tRNA, ATP, and proline and 3 uM MMV malaria box compound, assay read out with kinase glo as % inhibition.
T4 sequence (Q8I5R7 whole entry): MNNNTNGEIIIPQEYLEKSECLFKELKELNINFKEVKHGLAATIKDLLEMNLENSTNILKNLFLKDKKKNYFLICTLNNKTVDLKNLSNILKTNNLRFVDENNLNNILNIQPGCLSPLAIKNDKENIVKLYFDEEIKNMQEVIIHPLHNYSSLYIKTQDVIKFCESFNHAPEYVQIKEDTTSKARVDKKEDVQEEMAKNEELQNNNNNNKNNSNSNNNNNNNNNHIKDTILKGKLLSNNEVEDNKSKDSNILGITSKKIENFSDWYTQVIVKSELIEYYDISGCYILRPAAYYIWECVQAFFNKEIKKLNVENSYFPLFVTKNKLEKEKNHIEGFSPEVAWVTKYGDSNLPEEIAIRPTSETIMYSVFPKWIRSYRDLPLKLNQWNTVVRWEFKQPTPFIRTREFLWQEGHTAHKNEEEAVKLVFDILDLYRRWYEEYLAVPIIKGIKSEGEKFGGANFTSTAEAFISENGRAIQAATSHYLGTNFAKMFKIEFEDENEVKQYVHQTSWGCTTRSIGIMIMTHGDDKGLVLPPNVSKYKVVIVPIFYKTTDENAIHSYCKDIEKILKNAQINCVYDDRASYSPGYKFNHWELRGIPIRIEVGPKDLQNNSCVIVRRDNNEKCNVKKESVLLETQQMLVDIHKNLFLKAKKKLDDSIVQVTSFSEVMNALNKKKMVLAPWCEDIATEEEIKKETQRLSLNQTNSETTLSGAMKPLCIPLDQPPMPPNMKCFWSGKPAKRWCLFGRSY

[5] = molecular target: Calcium-dependent protein kinase 1 (Plasmodium falciparum, UniProt P62344); experiment: MMV: CDPK1 Protein kinase inhibition assay using recombinant PfCDPK1, syntide 2 peptide substrate, ATP and KinaseGlo to measure % inhibition at 1 uM MMV box compound.
Sequence of Calcium-dependent protein kinase 1 (P62344 whole entry): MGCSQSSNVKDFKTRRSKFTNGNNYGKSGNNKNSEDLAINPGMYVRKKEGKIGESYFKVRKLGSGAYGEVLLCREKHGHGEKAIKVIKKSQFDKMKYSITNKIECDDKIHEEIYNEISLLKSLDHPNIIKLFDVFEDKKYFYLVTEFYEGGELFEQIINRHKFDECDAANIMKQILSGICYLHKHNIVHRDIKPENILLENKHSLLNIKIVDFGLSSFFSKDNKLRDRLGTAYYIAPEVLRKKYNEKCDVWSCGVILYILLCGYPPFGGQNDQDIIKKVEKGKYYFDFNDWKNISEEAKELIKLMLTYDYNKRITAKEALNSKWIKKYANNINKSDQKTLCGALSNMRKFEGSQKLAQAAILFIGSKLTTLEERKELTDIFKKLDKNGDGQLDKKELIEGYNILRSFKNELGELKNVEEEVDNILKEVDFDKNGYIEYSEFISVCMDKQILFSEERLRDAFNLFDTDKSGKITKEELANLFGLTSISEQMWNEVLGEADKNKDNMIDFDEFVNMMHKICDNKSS

[6] = molecular target: T5, Calcium-dependent protein kinase 4 (Plasmodium falciparum (isolate 3D7), UniProt Q8IBS5); experiment: MMV: CDPK4 Protein kinase inhibition assay using recombinant PfCDPK4, syntide2 peptide substrate, ATP and KinaseGlo to measure % inhibition at 1 uM MMV box compound.
T5 sequence (Q8IBS5 whole entry): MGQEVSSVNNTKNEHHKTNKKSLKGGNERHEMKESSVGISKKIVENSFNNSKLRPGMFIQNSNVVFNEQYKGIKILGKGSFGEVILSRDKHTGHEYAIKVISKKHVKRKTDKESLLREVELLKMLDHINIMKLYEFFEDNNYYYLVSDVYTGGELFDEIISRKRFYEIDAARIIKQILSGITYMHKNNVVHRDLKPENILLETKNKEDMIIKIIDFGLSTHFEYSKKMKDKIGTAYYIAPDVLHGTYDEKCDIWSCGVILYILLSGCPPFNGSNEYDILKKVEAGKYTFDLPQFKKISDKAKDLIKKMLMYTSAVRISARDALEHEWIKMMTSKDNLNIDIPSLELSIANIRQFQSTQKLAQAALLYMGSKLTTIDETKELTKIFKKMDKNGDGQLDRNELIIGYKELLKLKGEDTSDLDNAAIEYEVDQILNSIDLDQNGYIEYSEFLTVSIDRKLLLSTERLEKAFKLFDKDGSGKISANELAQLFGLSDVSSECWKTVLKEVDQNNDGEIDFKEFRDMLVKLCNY

[7] = molecular target: Lysine--tRNA ligase (Plasmodium falciparum (isolate 3D7), UniProt Q8IDJ8); experiment: MMV: KRS recombinant Plasmodium falciparum Lysyl-tRNA-synthetase, assay with yeast tRNA, ATP, and lysine and 3 uM MMV malaria box compound, assay read out with kinase glo as % inhibition.
Sequence of Lysine--tRNA ligase (Q8IDJ8 whole entry): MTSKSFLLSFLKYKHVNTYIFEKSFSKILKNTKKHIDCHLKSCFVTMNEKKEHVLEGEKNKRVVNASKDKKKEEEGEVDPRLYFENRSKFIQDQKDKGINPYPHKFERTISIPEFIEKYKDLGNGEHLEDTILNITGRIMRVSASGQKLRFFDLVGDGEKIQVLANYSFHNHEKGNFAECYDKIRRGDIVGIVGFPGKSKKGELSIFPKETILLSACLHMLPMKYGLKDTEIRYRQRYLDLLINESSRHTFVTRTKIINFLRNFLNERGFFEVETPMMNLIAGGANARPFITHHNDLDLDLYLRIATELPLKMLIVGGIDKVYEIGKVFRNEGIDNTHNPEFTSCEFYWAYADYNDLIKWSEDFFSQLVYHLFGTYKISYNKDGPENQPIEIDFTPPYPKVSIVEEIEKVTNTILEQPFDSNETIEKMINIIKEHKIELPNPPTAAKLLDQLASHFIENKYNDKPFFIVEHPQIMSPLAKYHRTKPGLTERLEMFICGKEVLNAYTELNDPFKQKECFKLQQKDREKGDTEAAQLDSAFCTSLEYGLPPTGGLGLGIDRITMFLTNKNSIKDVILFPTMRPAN

COc1ccc(C2C(C(=O)Nc3cccc(OC)c3)c3ccccc3C(=O)N2C2CCCCC2)cc1 (stereo not given)
IC50 [1]: > 1 µM
IC50 [2]: > 1 µM
IC50 [3]: > 1 µM
IC50 [4]: > 2.5 µM
IC50 [5]: > 1 µM
IC50 [6]: > 1 µM
IC50 [7]: > 2.5 µM

FC(F)(F)c1cccc(CNC2CCN(CCc3ccccc3)CC2)c1
IC50 [1]: > 1 µM
IC50 [2]: > 1 µM
IC50 [3]: > 1 µM
IC50 [4]: > 2.5 µM
IC50 [5]: > 1 µM
IC50 [6]: > 1 µM
IC50 [7]: > 2.5 µM

CCOC(=O)c1cnc2c(C)cccc2c1Nc1ccc(C(C)=O)cc1
IC50 [1]: > 1 µM
IC50 [2]: > 1 µM
IC50 [3]: > 1 µM
IC50 [4]: > 2.5 µM
IC50 [5]: > 1 µM
IC50 [6]: > 1 µM
IC50 [7]: > 2.5 µM

COc1ccc(C2c3ccc4ccccc4c3Oc3ncn(CCCn4ccnc4)c(=N)c32)cc1OC (stereo not given)
IC50 [1]: > 1 µM
IC50 [2]: > 1 µM
IC50 [3]: > 1 µM
IC50 [4]: > 2.5 µM
IC50 [5]: > 1 µM
IC50 [6]: > 1 µM
IC50 [7]: > 2.5 µM

CCCCc1ccc(NS(=O)(=O)c2cc3c4c(c2)CCN4C(=O)CC3)cc1
IC50 [1]: > 1 µM
IC50 [2]: > 1 µM
IC50 [3]: > 1 µM
IC50 [4]: > 2.5 µM
IC50 [5]: > 1 µM
IC50 [6]: > 1 µM
IC50 [7]: > 2.5 µM

COc1cc(C(=O)Nc2ccc(-c3nc4ccccc4[nH]3)cc2)cc(OC)c1OC
IC50 [1]: > 1 µM
IC50 [2]: > 1 µM
IC50 [3]: > 1 µM
IC50 [4]: > 2.5 µM
IC50 [5]: > 1 µM
IC50 [6]: > 1 µM
IC50 [7]: > 2.5 µM

COc1ccc2c(c1)C1(Nc3ccccc3-c3nc4ccccc4n31)C(=O)N2 (stereo not given)
IC50 [1]: > 1 µM
IC50 [2]: > 1 µM
IC50 [3]: > 1 µM
IC50 [4]: > 2.5 µM
IC50 [5]: > 1 µM
IC50 [6]: > 1 µM
IC50 [7]: > 2.5 µM

COc1cccc(Nc2nc(N)c3ccccc3n2)c1
IC50 [1]: > 1 µM
IC50 [2]: > 1 µM
IC50 [3]: > 1 µM
IC50 [4]: > 2.5 µM
IC50 [5]: > 1 µM
IC50 [6]: > 1 µM
IC50 [7]: > 2.5 µM

COc1cccc(-c2nn(C)c3sc(C(=O)NCCN4CCN(c5ccccc5F)CC4)cc23)c1
IC50 [1]: > 1 µM
IC50 [2]: > 1 µM
IC50 [3]: > 1 µM
IC50 [4]: > 2.5 µM
IC50 [5]: > 1 µM
IC50 [6]: > 1 µM
IC50 [7]: > 2.5 µM

CCn1c2c(c(=N)c3c1CCC3)CCCC2
IC50 [1]: > 1 µM
IC50 [2]: > 1 µM
IC50 [3]: > 1 µM
IC50 [4]: > 2.5 µM
IC50 [5]: > 1 µM
IC50 [6]: > 1 µM
IC50 [7]: > 2.5 µM

CCOc1ccccc1CN1CCc2nc3cc(C(C)(C)C)nn3c(O)c2C1
IC50 [1]: > 1 µM
IC50 [2]: > 1 µM
IC50 [3]: > 1 µM
IC50 [4]: > 2.5 µM
IC50 [5]: > 1 µM
IC50 [6]: > 1 µM
IC50 [7]: > 2.5 µM

CCCc1c(CC)c(=N)c2ccccc2n1C
IC50 [1]: > 1 µM
IC50 [2]: > 1 µM
IC50 [3]: > 1 µM
IC50 [4]: > 2.5 µM
IC50 [5]: > 1 µM
IC50 [6]: > 1 µM
IC50 [7]: > 2.5 µM

Cc1ccc(CSCc2ccc(C(=O)NC3CC3)o2)cc1
IC50 [1]: > 1 µM
IC50 [2]: > 1 µM
IC50 [3]: > 1 µM
IC50 [4]: > 2.5 µM
IC50 [5]: > 1 µM
IC50 [6]: > 1 µM
IC50 [7]: > 2.5 µM

Cc1ccc2cc3c(N)c4c(C)ccc(C)c4nc3nc2c1
IC50 [1]: > 1 µM
IC50 [2]: > 1 µM
IC50 [3]: > 1 µM
IC50 [4]: > 2.5 µM
IC50 [5]: > 1 µM
IC50 [6]: > 1 µM
IC50 [7]: > 2.5 µM

CCCc1cc(O)c2c3c(c(=O)oc2c1)CN(C)CC3
IC50 [1]: > 1 µM
IC50 [2]: > 1 µM
IC50 [3]: > 1 µM
IC50 [4]: > 2.5 µM
IC50 [5]: > 1 µM
IC50 [6]: > 1 µM
IC50 [7]: > 2.5 µM

Reference: ChEMBL document CHEMBL3301562, “MMV Box screening against Plasmodium falciparum protein kinases and aminoacyl tRNA synthetases”
